molecular target: T1, human liver glycogen phosphorylase (Homo sapiens, UniProt P06737); test: Liver glycogen phosphorylase activity, forward reaction system (NADPH detection at 340 nm); type: biochemical; settings: enzyme inhibitory activity against recombinant human liver glycogen phosphorylase (Sf9 cell lysate), room temperature, 75 minutes
T1 construct: made in house; host or cells: Sf9 insect cells (suspension of disrupted cells, diluted in BES buffer, not purified)
T1 sequence (P06737 1-847): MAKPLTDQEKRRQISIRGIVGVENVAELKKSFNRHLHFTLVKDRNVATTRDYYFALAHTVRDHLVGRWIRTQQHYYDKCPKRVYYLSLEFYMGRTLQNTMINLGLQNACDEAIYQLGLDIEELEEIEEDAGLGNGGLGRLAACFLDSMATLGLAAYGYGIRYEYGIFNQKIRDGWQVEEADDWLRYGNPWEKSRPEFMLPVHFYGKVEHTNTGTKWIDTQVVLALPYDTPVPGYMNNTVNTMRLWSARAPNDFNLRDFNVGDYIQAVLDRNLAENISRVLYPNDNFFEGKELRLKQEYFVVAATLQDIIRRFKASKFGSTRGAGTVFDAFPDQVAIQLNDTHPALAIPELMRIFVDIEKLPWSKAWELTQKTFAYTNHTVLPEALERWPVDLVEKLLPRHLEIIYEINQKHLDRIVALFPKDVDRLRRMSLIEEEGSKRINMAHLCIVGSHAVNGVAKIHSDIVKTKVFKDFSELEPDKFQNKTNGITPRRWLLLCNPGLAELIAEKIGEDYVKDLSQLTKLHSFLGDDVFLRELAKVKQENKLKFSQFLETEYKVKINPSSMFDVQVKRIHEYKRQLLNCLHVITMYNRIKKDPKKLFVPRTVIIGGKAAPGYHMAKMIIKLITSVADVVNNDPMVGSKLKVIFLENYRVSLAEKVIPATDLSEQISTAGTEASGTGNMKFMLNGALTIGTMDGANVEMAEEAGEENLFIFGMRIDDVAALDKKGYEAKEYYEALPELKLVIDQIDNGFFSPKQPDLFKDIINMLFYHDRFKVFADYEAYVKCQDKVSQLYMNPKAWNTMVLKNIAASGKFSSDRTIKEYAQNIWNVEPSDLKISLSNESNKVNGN
Experimental: The glycogen phosphorylase activity was determined by a method using a forward reaction system.
The following method was used to determine the glycogen phosphorylase activity using a forward reaction system. Glucose-1-phosphate generated from glycogen by glycogen phosphorylase was converted to glucono-δ-lactone-6-phosphate by transphosphorylation and dehydrogenation reactions using phosphoglucomutase and glucose-6-phosphate dehydrogenase (G6PDH). At this time, NADPH generated from NADP in the dehydrogenation reaction by G6PDH was detected.
An enzyme solution of human liver glycogen phosphorylase was obtained by diluting with 100 mmol/L BES buffer (pH 6.8, containing 2 mmol/L EDTA) a suspension disrupted Sf9 cells in which a recombinant human liver glycogen phosphorylase was forcibly expressed. Phosphate buffer (16 mmol/L KH2PO4, containing 24 mmol/L Na2HPO4) was used as a substrate solution. A mixture of 8 U/mL phosphoglucomutase and 60 U/mL G6PDH was prepared with BES buffer. A reaction buffer (1.4 mmol/L NADP, 30 mmol/L MgCl2, 8 μmol/L glucose-1,6-diphosphate, 8 mg/mL glycogen, 40 mmol/L BES, containing 0.8 mmol/L EDTA) and a glucose solution (75 mmol/L glucose and 100 mmol/L BES, containing 2 mmol/L EDTA) were prepared. A test substance was dissolved in 1% DMSO aqueous solution.
To a mixture of the glucose solution (20 μL), the substrate solution (20 μL), the reaction buffer (100 μL), and the test substance (20 μL), the recombinant human liver glycogen phosphorylase solution (20 μL), and a mixture (20 μL) of phosphoglucomutase and G6PDH were added to initiate an enzymatic reaction. To a control, 1% DMSO aqueous solution was added instead of the test substance. A solution to which the substrate was not added was used as a blank. After initiation of the reaction, absorbance at 340 nm was measured immediately. The reaction was performed at room temperature for 75 minutes, and then absorbance at 340 nm was measured again. The enzyme activity was obtained by deducting the change in absorbance of the blank for 75 minutes from the change in absorbance over 75 minutes. The inhibition rate (%) of the test substance was calculated by “(1−(enzyme activity of test substance)/(enzyme activity of control))×100”.
“IC50” represents an enzyme inhibitory activity against human liver glycogen phosphorylase.

| SMILES | IC50 [nM] |
| --- | --- |
| CCOC(=O)c1ccc(CNC(=O)c2cc(NC(=O)c3cc(F)c(F)cc3Cl)[nH]n2)o1 [Example 1-1, 5-(2-chloro-4,5-difluoro-benzoylamino)-1H-pyrazole-3-carboxylic acid (5-ethoxycarbonyl-furan-2-ylmethyl)-amide] | < 100 |
| CCN(CC)S(=O)(=O)c1ccsc1CNC(=O)c1cc(NC(=O)c2cc(F)c(F)cc2Cl)[nH]n1 [Example 1-2, 5-(2-chloro-4,5-difluoro-benzoylamino)-1H-pyrazole-3-carboxylic acid (3-diethylsulfamoyl-thiophen-2-ylmethyl)-amide] | 100 to 300 |
| O=C(NCc1sccc1OCc1ccccc1)c1cc(NC(=O)c2cc(F)c(F)cc2Cl)[nH]n1 [Example 1-3, 5-(2-chloro-4,5-difluoro-benzoylamino)-1H-pyrazole-3-carboxylic acid (3-benzyloxy-thiophen-2-ylmethyl)-amide] | 100 to 300 |
| Cc1nc(-c2ccc(CNC(=O)c3cc(NC(=O)c4cc(F)c(F)cc4Cl)[nH]n3)s2)cs1 [Example 1-4, 5-(2-chloro-4,5-difluoro-benzoylamino)-1H-pyrazole-3-carboxylic acid [5-(2-methyl-thiazol-4-yl)-thiophen-2-ylmethyl]-amide] | < 100 |
| O=C(NCc1csc(-c2ccc(Cl)cc2)n1)c1cc(NC(=O)c2cc(F)c(F)cc2Cl)[nH]n1 [Example 1-5, 5-(2-chloro-4,5-difluoro-benzoylamino)-1H-pyrazole-3-carboxylic acid [2-(4-chloro-phenyl)-thiazol-4-ylmethyl]-amide] | < 100 |
| Cc1nc(-c2ccc(C(F)(F)F)cc2)sc1CNC(=O)c1cc(NC(=O)c2cc(F)c(F)cc2Cl)[nH]n1 [Example 1-6, 5-(2-chloro-4,5-difluoro-benzoylamino)-1H-pyrazole-3-carboxylic acid [4-methyl-2-(4-trifluoromethyl-phenyl)-thiazol-5-ylmethyl]-amide] | 100 to 300 |
| Cc1ccc(-c2nc(C)c(CNC(=O)c3cc(NC(=O)c4cc(F)c(F)cc4Cl)[nH]n3)s2)s1 [Example 1-7, 5-(2-chloro-4,5-difluoro-benzoylamino)-1H-pyrazole-3-carboxylic acid [4-methyl-2-(5-methyl-thiophen-2-yl)-thiazol-5-ylmethyl]-amide] | < 100 |
| Cc1nc(-c2ccc(Cl)s2)sc1CNC(=O)c1cc(NC(=O)c2cc(F)c(F)cc2Cl)[nH]n1 [Example 1-8, 5-(2-chloro-4,5-difluoro-benzoylamino)-1H-pyrazole-3-carboxylic acid [2-(5-chlorothiophen-2-yl)-4-methyl-thiazol-5-ylmethyl]-amide] | < 100 |
| Cc1nc(-c2cc3ccccc3s2)sc1CNC(=O)c1cc(NC(=O)c2cc(F)c(F)cc2Cl)[nH]n1 [Example 1-9, 5-(2-chloro-4,5-difluoro-benzoylamino)-1H-pyrazole-3-carboxylic acid (2-benzo[b]thiophen-2-yl-4-methyl-thiazol-5-ylmethyl)-amide] | < 100 |
| CCOC(=O)c1nc(C)c(CNC(=O)c2cc(NC(=O)c3cc(F)c(F)cc3Cl)[nH]n2)s1 [Example 1-10, 5-(2-chloro-4,5-difluoro-benzoylamino)-1H-pyrazole-3-carboxylic acid (2-ethoxycarbonyl-4-methyl-thiazol-5-ylmethyl)-amide] | < 100 |
| Cc1nc(C23CC4CC(CC(C4)C2)C3)c(CNC(=O)c2cc(NC(=O)c3cc(F)c(F)cc3Cl)[nH]n2)s1 [Example 1-11, 5-(2-chloro-4,5-difluoro-benzoylamino)-1H-pyrazole-3-carboxylic acid (4-adamantan-1-yl-2-methyl-thiazol-5-ylmethyl)-amide] | < 100 |
| Cc1nc2c(s1)CN(C(=O)c1cc(NC(=O)c3cc(F)c(F)cc3Cl)[nH]n1)CC2 [Example 1-12] | 100 to 300 |
| CCOC(=O)c1[nH]c(CNC(=O)c2cc(NC(=O)c3cc(F)c(F)cc3Cl)[nH]n2)nc1C [Example 1-13, 5-(2-chloro-4,5-difluoro-benzoylamino)-1H-pyrazole-3-carboxylic acid (5-ethoxycarbonyl-4-methyl-1H-imidazol-2-ylmethyl)-amide] | < 100 |
| Cc1onc(-c2ccc(C#N)cc2)c1CNC(=O)c1cc(NC(=O)c2cc(F)c(F)cc2Cl)[nH]n1 [Example 1-14, 5-(2-chloro-4,5-difluoro-benzoylamino)-1H-pyrazole-3-carboxylic acid [3-(4-cyano-phenyl)-5-methylisoxazol-4-ylmethyl]-amide] | < 100 |
| Cc1onc(-c2ccc(N(C)C)cc2)c1CNC(=O)c1cc(NC(=O)c2cc(F)c(F)cc2Cl)[nH]n1 [Example 1-15, 5-(2-chloro-4,5-difluoro-benzoylamino)-1H-pyrazole-3-carboxylic acid [3-(4-dimethylamino-phenyl)-5-methylisoxazol-4-ylmethyl]-amide] | < 100 |
| Cc1onc(-c2ccc(S(C)(=O)=O)cc2)c1CNC(=O)c1cc(NC(=O)c2cc(F)c(F)cc2Cl)[nH]n1 [Example 1-16, 5-(2-chloro-4,5-difluoro-benzoylamino)-1H-pyrazole-3-carboxylic acid [3-(4-methanesulfonyl-phenyl)-5-methylisoxazol-4-ylmethyl]-amide] | < 100 |
| Cc1onc(-c2ccccc2F)c1CNC(=O)c1cc(NC(=O)c2cc(F)c(F)cc2Cl)[nH]n1 [Example 1-17, 5-(2-chloro-4,5-difluoro-benzoylamino)-1H-pyrazole-3-carboxylic acid [3-(2-fluoro-phenyl)-5-methylisoxazol-4-ylmethyl]-amide] | 100 to 300 |
| Cc1cc(-c2onc(C)c2CNC(=O)c2cc(NC(=O)c3cc(F)c(F)cc3Cl)[nH]n2)no1 [Example 1-18, 5-(2-chloro-4,5-difluoro-benzoylamino)-1H-pyrazole-3-carboxylic acid (5,3′-dimethyl-[3,5′]biisoxazolyl-4′-ylmethyl)-amide] | < 100 |
| Cc1cccc(-c2onc(C)c2CNC(=O)c2cc(NC(=O)c3cc(F)c(F)cc3Cl)[nH]n2)n1 [Example 1-19, 5-(2-chloro-4,5-difluoro-benzoylamino)-1H-pyrazole-3-carboxylic acid [3-methyl-5-(6-methyl-pyridin-2-yl)-isoxazol-4-ylmethyl]-amide] | < 100 |
| Cc1noc(-c2ccnc(Cl)c2)c1CNC(=O)c1cc(NC(=O)c2cc(F)c(F)cc2Cl)[nH]n1 [Example 1-20, 5-(2-chloro-4,5-difluoro-benzoylamino)-1H-pyrazole-3-carboxylic acid [5-(2-chloro-pyridin-4-yl)-3-methylisoxazol-4-ylmethyl]-amide] | < 100 |
| Cc1ccc(-c2onc(C)c2CNC(=O)c2cc(NC(=O)c3cc(F)c(F)cc3Cl)[nH]n2)cn1 [Example 1-21, 5-(2-chloro-4,5-difluoro-benzoylamino)-1H-pyrazole-3-carboxylic acid [3-methyl-5-(6-methyl-pyridin-3-yl)-isoxazol-4-ylmethyl]-amide] | < 100 |
| Cc1nc(C)c(-c2onc(C)c2CNC(=O)c2cc(NC(=O)c3cc(F)c(F)cc3Cl)[nH]n2)s1 [Example 1-22, 5-(2-chloro-4,5-difluoro-benzoylamino)-1H-pyrazole-3-carboxylic acid [5-(2,4-dimethyl-thiazol-5-yl)-3-methylisoxazol-4-ylmethyl]-amide] | < 100 |
| CCOC(=O)c1cc(CNC(=O)c2cc(NC(=O)c3cc(F)c(F)cc3Cl)[nH]n2)on1 [Example 1-23, 5-(2-chloro-4,5-difluoro-benzoylamino)-1H-pyrazole-3-carboxylic acid (3-ethoxycarbonylisoxazol-5-ylmethyl)-amide] | < 100 |

Reference: patent US20090036450A1, “PYRAZOLE COMPOUNDS AND USE THEREOF” (JAPAN TOBACCO, INC., priority 2006, published 2009)
